Test results: patent US7390826B2, “Inhibitors of animal cell motility and growth” (The Board of Trustees of The University of Illinois, priority 2002, dated 2008)
“Also recorded” adds a separate entry of the source. Like-named read-outs stand apart in the source and are kept apart here.

Experiments:
[1] = test system: Madin-Darby canine kidney (MDCK) cell monolayers; assay: scrape-wound closure assay in MDCK cell monolayers; assay type: cell-based; conditions: for IC50: Canis lupus familiaris, MDCK, 12 h
Source text: A method of determining the ability of a compound to inhibit or accelerate cell motility is a scrape-wound closure assay using cultured mammalian epithelial cell monolayers. Mechanical scraping of the epithelial monolayer induces cell sheet migration into the resulting gap, a phenomenon characteristic of wounded epithelia and mechanistically related to normal epithelial movements during embryonic morphogenesis (A. Jacinto et al., Nat. Cell Biol, 3, E117 (2001)). Epithelial cell sheet migration in this method proceeds by a Rac- and phosphoinositide-dependent cell crawling mechanism resembling the motility of other animal cells that move as individuals rather than as cell sheets (G. Fenteany et al., Curr. Biol., 10, 831 (2000)).
Wound closure in MDCK cell monolayers primarily involves cell spreading and motility rather than proliferation based on observations and treatments that block cell growth without inhibiting closure. However, after closure is complete and the gap is covered, cell division is observed in the former wound area, presumably as part of a homeostatic mechanism to regain the original cell density (M. F. Olson et al., Science, 269, 1270 (1995)). Wound closure involves Rac- and phosphoinositide-dependent actin polymerization and protrusion-driven cell crawling behavior, where force generation for movement is distributed from the wound margin to several rows of cells behind the margin. Accordingly, this method is excellent for determining whether a compound affects cell motility.
Cell culture conditions: Madin-Darby canine kidney (MDCK) cells (American Type Culture Collection cell line CCL-34) were cultured in Minimum Essential Medium (with Earle's balanced salts, non-essential amino acids, L-glutamine and sodium pyruvate) supplemented with 10% newborn calf serum at 37° C. and 5% carbon dioxide (CO2). Main cultures were grown in either […] tissue culture flasks with medium changes every two days. When cultures were about 75% confluent, cells were passaged by rinsing twice with single strength phosphate buffered saline (PBS) and treating with a solution of 0.05% (w/v) trypsin/0.02% (w/v) ethylenediaminetetraacetic acid (EDTA) in PBS to detach cells from the flasks. After cells were detached, an equal volume of serum-containing medium was added to inhibit the trypsin and cell density was determined using a hemacytometer. Cells were replated following dilution in fresh medium on new tissue culture flasks for continued culture and multiwell tissue culture plates for experiments. No culture used exceeded 15 passages. Experimental cultures were grown in 12-, 24-, 48-, or 96-well tissue culture plates with medium changes every two days.
Wound closure assay and compound screening: MDCK cells were plated on multiwell tissue culture plates and cultured at 37° C. and 5% CO2 with medium changes every two days until confluent. When the cultures reached confluence, medium was changed again and all experimental treatments were begun a day later. Compounds were solubilized in dimethyl sulfoxide (DMSO) and added with fresh-medium to cell cultures at initial screening concentrations of 10 and 100 μM. Controls consisted of parallel wells to-which DMSO solvent carrier alone was added at the same concentration as that added with experimental treatments (not exceeding 0.1% (v/v)). DMSO alone at this concentration had no detectable effect on the cells. Monolayers were scraped 30 min later with a micropipette and ultramicro tips, allowing small wounds of consistent size to be generated. Progress of wound closure was examined at set time intervals following wounding by microscope, and inhibitory or acceleratory effects on wound closure relative to parallel controls noted. […] Digital images of the wounded monolayers were taken every 2 hours for 18 hours, and then at 30, 36, 54, 60, and 72 hours following wounding. The number of lamellipodia at the wound margin was also counted at these times. […]

[2] = test system: MDCK cell wounds; assay: lamellipodial density at the margin of MDCK cell wounds; assay type: cell-based, canine; conditions: for Lamellipodial Density: 50 μM, mean ± SEM, * p<0.05 vs control
Description: Lamellipodial protrusion is known to drive most forms of animal cell crawling. At any given time in the migrating cell sheet, some cells are extending lamellipodia at the margin while others are not. […] Therefore, inhibition of cell sheet migration by compound 1 at least in part is attributed to reduced formation of lamellipodia at the would margin.
Lamellipodial density at the margin of MDCK cell wounds was determined under the following treatment conditions: 0.1% DMSO (control, n=25 wounded monolayers), 50 μM compound 1 (n=19), or 50 μM compound 11 (n=10). Lamellipodial density is the number of lamellipodial protrusions detected at the wound margin until closure for the times indicated divided by margin perimeter length. Values are mean±SEM.
Wound closure assay and compound screening: MDCK cells were plated on multiwell tissue culture plates and cultured at 37° C. and 5% CO2 with medium changes every two days until confluent. When the cultures reached confluence, medium was changed again and all experimental treatments were begun a day later. Compounds were solubilized in dimethyl sulfoxide (DMSO) and added with fresh-medium to cell cultures at initial screening concentrations of 10 and 100 μM. Controls consisted of parallel wells to-which DMSO solvent carrier alone was added at the same concentration as that added with experimental treatments (not exceeding 0.1% (v/v)). DMSO alone at this concentration had no detectable effect on the cells. Monolayers were scraped 30 min later with a micropipette and ultramicro tips, allowing small wounds of consistent size to be generated. Progress of wound closure was examined at set time intervals following wounding by microscope, and inhibitory or acceleratory effects on wound closure relative to parallel controls noted. […] Digital images of the wounded monolayers were taken every 2 hours for 18 hours, and then at 30, 36, 54, 60, and 72 hours following wounding. The number of lamellipodia at the wound margin was also counted at these times.

[3] = test system: MDCK cells; assay: Trypan blue exclusion cell viability assay; assay type: cell-based, canine
Source text: Cells also remain normal in morphology with both cell-substratum and cell-cell adhesion intact after treatment with compound 1.

[4] = test system: MDCK cell monolayers; assay: filamentous actin staining (rhodamine-phalloidin) of wounded MDCK monolayers; assay type: cell-based, canine; conditions: 50 μM; 12 hours after wounding
Description: Although formation of perimarginal actin bundles is not required for wound closure in this system, these actin bundles may help to distribute force in the first row of cells from actively protruding and moving cells to less-actively motile cells, thus making the closure process more regular and uniform than it would be otherwise.
Filamentous actin staining: MDCK cell mono-layers on glass coverslips-were fixed with 3.7% formaldehyde in PBS 12 hours after wounding. Cells were permeabilized with 0.1% (w/v) TRITONO X-100 in PBS, stained with 50 nM tetramethylrhodamine-conjugated phalloidin in PBS, and washed twice with PBS. Coverslips were mounted in 90% glycerol/10% ten strength PBS with 2 mg/mL p-phenylenediamine on glass slides and then examined by fluorescence microscopy.

Compound: C/C=C/C(=O)N1C(=O)OC[C@@H]1Cc1ccccc1 [Compound 1, (4S)-3-((E)-2-butenoyl)-4-benzyl-2-oxazolidinone]
- IC50 ([1]; read-out: calculated IC50 for inhibition of wound closure at 12 hours): 14 µM
- IC50 ([1]; read-out: log IC50±standard error of log IC50 (converted)): 14 µM
- inhibition of cell motility / epithelial cell sheet migration during wound closure ([1]; MDCK cells, p<0.05): potent inhibitor of cell motility; also recorded: inhibits epithelial cell sheet migration during wound closure
- inhibition of wound closure in serum-free conditions ([1]; serum-free): inhibited wound closure to a similar degree relative to the control
- reversibility of inhibition of wound closure ([1]; upon changing to compound-free medium): reversible
- Lamellipodial Density ([2]; 2 hours): 0.341 ± 0.119
- Lamellipodial Density ([2]; 4 hours): 0.573 ± 0.194*
- Lamellipodial Density ([2]; 6 hours): 0.563 ± 0.142*
- Lamellipodial Density ([2]; 8 hours): 0.938 ± 0.184*
- Lamellipodial Density ([2]; 10 hours): 0.803 ± 0.203
- Lamellipodial Density ([2]; 12 hours): 0.520 ± 0.124*
- cells extending lamellipodia at the margin ([2]; versus control): significantly fewer cells extending lamellipodia at the margin
- toxicity at concentrations that inhibit cell migration [3]: no general toxicity; also recorded: no evidence of toxicity or metabolic distress
- formation of filamentous actin bundles at wound margin [4]: did not affect formation of filamentous actin bundles
